According to patent publication US20260102383A1, “LPAR1 Inhibitors” (AbbVie Inc., priority 2024, published 2026):

Molecular target: T1, human LPAR1 (Homo sapiens, UniProt Q92633)
T1 construct: host or cells: TangoEDG2-bla U2OS cells
Experiment: Arrestin assay (Arrestin Reporter EDG2-bla U2OS), inhibition of LPA-stimulated signal
Type: cell-based
Settings: TangoEDG2-bla U2OS cells expressing human LPAR1; 0.25 μM LPA; read-out: Arrestin Reporter EDG2-bla U2OS Human Merged IC50
Summary of the method: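 IC50 comes from a variable-slope 4-parameter fit of % inhibition, calculated from the beta-lactamase FRET ratio (emission 460/530 nm, excitation 409 nm, 2 h development at RT). Compounds, 10 μM down to 0.00006 μM in 3-fold steps, were given 1 h before 0.25 μM final LPA for 3 h in TangoEDG2-bla U2OS cells.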

T1 sequence (Q92633 whole entry): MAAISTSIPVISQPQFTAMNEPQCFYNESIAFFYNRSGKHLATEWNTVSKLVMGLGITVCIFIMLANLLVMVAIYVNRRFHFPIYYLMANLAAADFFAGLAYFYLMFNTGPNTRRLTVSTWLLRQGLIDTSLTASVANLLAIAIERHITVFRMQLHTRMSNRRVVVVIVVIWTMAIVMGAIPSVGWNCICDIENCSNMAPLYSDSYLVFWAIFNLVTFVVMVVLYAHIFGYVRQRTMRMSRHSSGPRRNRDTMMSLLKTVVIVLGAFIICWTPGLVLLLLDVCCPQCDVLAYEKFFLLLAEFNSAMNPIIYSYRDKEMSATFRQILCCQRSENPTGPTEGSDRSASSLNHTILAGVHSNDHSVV

IC50 | Compound
37.7 nM | COC1CC(C(CN2CCC(C(=O)Nc3ccc(Cl)cc3OC(F)F)(n3nccc3C(C)C)CC2)C(=O)O)C1 (stereo not drawn) [Compound 200, 3-[4-[[4-chloro-2-(difluoromethoxy)phenyl]carbamoyl]-4-(5-isopropylpyrazol-1-yl)-1-piperidyl]-2-(3-methoxycyclobutyl) propanoic acid]
30.6 nM | COc1cnn(C[C@@H](CN2CCC(C(=O)Nc3ccc(Cl)cc3OC(F)F)(n3nccc3C(C)C)CC2)C(=O)O)c1 [Compound 201, (2R)-2-[[4-[[4-chloro-2-(difluoromethoxy)phenyl]carbamoyl]-4-(5-isopropylpyrazol-1-yl)-1-piperidyl]methyl]-3-(4-methoxypyrazol-1-yl)propanoic acid]
46 nM | COc1cnn(C[C@H](CN2CCC(C(=O)Nc3ccc(Cl)cc3OC(F)F)(n3nccc3C(C)C)CC2)C(=O)O)c1 [Compound 202, (2S)-2-[[4-[[4-chloro-2-(difluoromethoxy)phenyl]carbamoyl]-4-(5-isopropylpyrazol-1-yl)-1-piperidyl]methyl]-3-(4-methoxypyrazol-1-yl)propanoic acid]
66.6 nM | CC(C)c1ccnn1C1(C(=O)Nc2ccc(Cl)cc2OC(F)F)CCN(CC(C(=O)O)C(C)O)CC1 (stereo not drawn) [Compound 203, 2-[[4-[[4-chloro-2-(difluoromethoxy)phenyl]carbamoyl]-4-(5-isopropylpyrazol-1-yl)-1-piperidyl]methyl]-3-hydroxy-butanoic acid]
46.9 nM | CO[C@]1(C(=O)O)C[C@@H](N2CCC(C(=O)Nc3ccc(Cl)cc3OC(F)F)(n3ncc(F)c3C(C)C)CC2)C1 [Compound 204, (1r,3r)-3-[4-[[4-chloro-2-(difluoromethoxy)phenyl]carbamoyl]-4-(4-fluoro-5-isopropyl-pyrazol-1-yl)-1-piperidyl]-1-methoxy-cyclobutanecarboxylic acid]
17.9 nM | COC[C@H](CN1CCC(C(=O)Nc2ccc(Cl)cc2OC(F)F)(n2ncc(Cl)c2C(C)C)CC1)C(=O)O [Compound 205, (2S)-2-[[4-[[4-chloro-2-(difluoromethoxy)phenyl]carbamoyl]-4-(4-chloro-5-isopropyl-pyrazol-1-yl)-1-piperidyl]methyl]-3-methoxy-propanoic acid]
16.9 nM | COC[C@@H](CN1CCC(C(=O)Nc2ccc(Cl)cc2OC(F)F)(n2ncc(Cl)c2C(C)C)CC1)C(=O)O [Compound 206, (2R)-2-[[4-[[4-chloro-2-(difluoromethoxy)phenyl]carbamoyl]-4-(4-chloro-5-isopropyl-pyrazol-1-yl)-1-piperidyl]methyl]-3-methoxy-propanoic acid]
93.7 nM | COCC[C@H](CN1CCC(C(=O)Nc2ccc(Cl)cc2OC(F)F)(n2ncc3c2C(C)(C)OC3)CC1)C(=O)O [Compound 207, (2R)-2-[[4-[[4-chloro-2-(difluoromethoxy)phenyl]carbamoyl]-4-(6,6-dimethyl-4H-furo[3,4-c]pyrazol-1-yl)-1-piperidyl]methyl]-4-methoxy-butanoic acid]
94.4 nM | COC[C@H](CN1CCC(C(=O)Nc2ccc(Cl)cc2OC(F)F)(n2ncc3c2C(C)(C)OC3)CC1)C(=O)O [Compound 208, (2S)-2-[[4-[[4-chloro-2-(difluoromethoxy)phenyl]carbamoyl]-4-(6,6-dimethyl-4H-furo[3,4-c]pyrazol-1-yl)-1-piperidyl]methyl]-3-methoxy-propanoic acid]
33.6 nM | CC(C)c1c(F)cnn1C1(C(=O)Nc2ccc(Cl)cc2OC(F)F)CCN(C[C@@H](CO)C(=O)O)CC1 [Compound 209, (2S)-2-[[4-[[4-chloro-2-(difluoromethoxy)phenyl]carbamoyl]-4-(4-fluoro-5-isopropyl-pyrazol-1-yl)-1-piperidyl]methyl]-3-hydroxy-propanoic acid]
123 nM | COCC[C@@H](CN1CCC(C(=O)Nc2ccc(Cl)cc2OC(F)F)(n2ncc3c2C(C)(C)OC3)CC1)C(=O)O [Compound 210, (2S)-2-[[4-[[4-chloro-2-(difluoromethoxy)phenyl]carbamoyl]-4-(6,6-dimethyl-4H-furo[3,4-c]pyrazol-1-yl)-1-piperidyl]methyl]-4-methoxy-butanoic acid]
87.3 nM | COC[C@@H](CN1CCC(C(=O)Nc2ccc(Cl)cc2OC(F)F)(n2ncc3c2C(C)(C)OC3)CC1)C(=O)O [Compound 211, (2R)-2-[[4-[[4-chloro-2-(difluoromethoxy)phenyl]carbamoyl]-4-(6,6-dimethyl-4H-furo[3,4-c]pyrazol-1-yl)-1-piperidyl]methyl]-3-methoxy-propanoic acid]
46.3 nM | CC(C)c1c(F)cnn1C1(C(=O)Nc2ccc(Cl)cc2OC(F)F)CCN([C@H]2C[C@](C)(C(=O)O)C2)CC1 [Compound 212, (1r,3r)-3-[4-[[4-chloro-2-(difluoromethoxy)phenyl]carbamoyl]-4-(4-fluoro-5-isopropyl-pyrazol-1-yl)-1-piperidyl]-1-methyl-cyclobutanecarboxylic acid]
22.2 nM | CC(C)c1c(F)cnn1C1(C(=O)Nc2ccc(Cl)cc2OC(F)F)CCN(C[C@H](CO)C(=O)O)CC1 [Compound 213, (2R)-2-[[4-[[4-chloro-2-(difluoromethoxy)phenyl]carbamoyl]-4-(4-fluoro-5-isopropyl-pyrazol-1-yl)-1-piperidyl]methyl]-3-hydroxy-propanoic acid]
75.8 nM | CC(C)c1c(F)cnn1C1(C(=O)Nc2ccc(Cl)cc2OC(F)F)CCN([C@H]2CO[C@@H](C(=O)O)C2)CC1 [Compound 214, (2R,4R)-4-[4-[[4-chloro-2-(difluoromethoxy)phenyl]carbamoyl]-4-(4-fluoro-5-isopropyl-pyrazol-1-yl)-1-piperidyl]tetrahydrofuran-2-carboxylic acid]
18.5 nM | CC(C)c1ccnn1C1(C(=O)Nc2ccc(Cl)cc2OC(F)F)CCN(C[C@@H](C(=O)O)C2COCCOC2)CC1 [Compound 215, (2S)-3-[4-[[4-chloro-2-(difluoromethoxy)phenyl]carbamoyl]-4-(5-isopropylpyrazol-1-yl)-1-piperidyl]-2-(1,4-dioxepan-6-yl)propanoic acid]
28.4 nM | CC(C)c1ccnn1C1(C(=O)Nc2ccc(Cl)cc2OC(F)F)CCN(C[C@H](C(=O)O)C2COCCOC2)CC1 [Compound 216, (2R)-3-[4-[[4-chloro-2-(difluoromethoxy)phenyl]carbamoyl]-4-(5-isopropylpyrazol-1-yl)-1-piperidyl]-2-(1,4-dioxepan-6-yl)propanoic acid]
71.5 nM | CC(C)c1ccnn1C1(C(=O)Nc2ccc(Cl)cc2OC(F)F)CCN([C@H]2C[C@@](C(=O)O)(C(F)F)C2)CC1 [Compound 220, (1s,3s)-3-[4-[[4-chloro-2-(difluoromethoxy)phenyl]carbamoyl]-4-(5-isopropylpyrazol-1-yl)-1-piperidyl]-1-(difluoromethyl) cyclobutanccarboxylic acid]
27.7 nM | CC(C)c1ccnn1C1(C(=O)Nc2ccc(Cl)cc2OC(F)F)CCN([C@H]2C[C@](C(=O)O)(C(F)F)C2)CC1 [Compound 221]
47.9 nM | CC(C)c1ccnn1C1(C(=O)Nc2ccc(Cl)cc2OC(F)F)CCN(C[C@@H](C(=O)O)[C@@H](C)O)CC1 [Compound 222, (2R,3R)-2-[[4-[[4-chloro-2-(difluoromethoxy)phenyl]carbamoyl]-4-(5-isopropylpyrazol-1-yl)-1-piperidyl]methyl]-3-hydroxy-butanoic acid]
59.5 nM | CC(C)c1ccnn1C1(C(=O)Nc2ccc(Cl)cc2OC(F)F)CCN(C[C@@H](C(=O)O)[C@H](C)O)CC1 [Compound 223, (2R,3S)-2-[[4-[[4-chloro-2-(difluoromethoxy)phenyl]carbamoyl]-4-(5-isopropylpyrazol-1-yl)-1-piperidyl]methyl]-3-hydroxy-butanoic acid]
31.1 nM | COc1cnn([C@H](CN2CCC(C(=O)Nc3ccc(Cl)cc3OC(F)F)(n3nccc3C(C)C)CC2)C(=O)O)c1 [Compound 224, (2R)-3-[4-[[4-chloro-2-(difluoromethoxy)phenyl]carbamoyl]-4-(5-isopropylpyrazol-1-yl)-1-piperidyl]-2-(4-methoxypyrazol-1-yl)propanoic acid]
30.9 nM | COc1cnn([C@@H](CN2CCC(C(=O)Nc3ccc(Cl)cc3OC(F)F)(n3nccc3C(C)C)CC2)C(=O)O)c1 [Compound 225, (2S)-3-[4-[[4-chloro-2-(difluoromethoxy)phenyl]carbamoyl]-4-(5-isopropylpyrazol-1-yl)-1-piperidyl]-2-(4-methoxypyrazol-1-yl)propanoic acid]
39.9 nM | CO[C@H]1C[C@@H]([C@H](CN2CCC(C(=O)Nc3ccc(Cl)cc3OC(F)F)(n3nccc3C(C)C)CC2)C(=O)O)C1 [Compound 226]
38.3 nM | CO[C@H]1C[C@@H]([C@@H](CN2CCC(C(=O)Nc3ccc(Cl)cc3OC(F)F)(n3nccc3C(C)C)CC2)C(=O)O)C1 [Compound 227, (2S)-3-[4-[[4-chloro-2-(difluoromethoxy)phenyl]carbamoyl]-4-(5-isopropylpyrazol-1-yl)-1-piperidyl]-2-((1s,3R)-3-methoxycyclobutyl) propanoic acid]
16.6 nM | CCOC[C@H](CN1CCC(C(=O)Nc2ccc(Cl)cc2OC(F)F)(n2nccc2C(C)C)CC1)C(=O)O [Compound 228, (2S)-2-[[4-[[4-chloro-2-(difluoromethoxy)phenyl]carbamoyl]-4-(5-isopropylpyrazol-1-yl)-1-piperidyl]methyl]-3-ethoxy-propanoic acid]
29.2 nM | CO[C@H]1C[C@H]([C@H](CN2CCC(C(=O)Nc3ccc(Cl)cc3OC(F)F)(n3nccc3C(C)C)CC2)C(=O)O)C1 [Compound 229, (2R)-3-[4-[[4-chloro-2-(difluoromethoxy)phenyl]carbamoyl]-4-(5-isopropylpyrazol-1-yl)-1-piperidyl]-2-((1r,3R)-3-methoxycyclobutyl) propanoic acid]
